# Assay results reported in ChEMBL document CHEMBL2321712 (ACS Med Chem Lett, 2013).
# The source made the active and inactive calls. The calls are words filed in the database; no cut-off is given here.
# Tests used:
# [1] = Volume of distribution at steady state in rat at 5 mg/kg, iv; format: ADME, organism-based; parameters: dose 5 mg/kg, route intravenous; settings: in vivo, read-out: Vdss
# A549 [2] = experiment: Antitumor activity against human A549 cells xenografted in mouse assessed as tumor growth inhibition at 1.56 mg/kg, po qd up to 32 days; format: functional, organism-based; parameters: dose 1.56 mg/kg
# Mus musculus [3] = experiment: Toxicity in human A549 cells xenografted mouse assessed as changes in body weight and gross observation at 25 to 50 mg/kg, po qd up to 32 days; format: organism-based; parameters: dose 25-50 mg/kg, route oral; settings: in vivo, 768 h
# LoVo = experiment: Antitumor activity against human LoVo cells xenografted in mouse assessed as increase in mouse survival at 25 to 50 mg/kg, po qd up to 32 days; format: functional; settings: dose mg/kg 25-50
# [4] = Volume of distribution at steady state in monkey at 1 mg/kg, iv; format: ADME, organism-based, Macaca mulatta; parameters: dose 1 mg/kg, route intravenous; settings: rhesus monkey, in vivo, read-out: Vdss
# [5] = Tmax in mouse at 25 mg/kg, po; format: ADME, organism-based; parameters: dose 25 mg/kg, route oral; settings: in vivo
# [6] = biological target: Fibroblast growth factor receptor 1 (Homo sapiens, UniProt P11362); experiment: Inhibition of FGFR1 (unknown origin); format: single protein
# Sequence of Fibroblast growth factor receptor 1 (P11362 whole entry): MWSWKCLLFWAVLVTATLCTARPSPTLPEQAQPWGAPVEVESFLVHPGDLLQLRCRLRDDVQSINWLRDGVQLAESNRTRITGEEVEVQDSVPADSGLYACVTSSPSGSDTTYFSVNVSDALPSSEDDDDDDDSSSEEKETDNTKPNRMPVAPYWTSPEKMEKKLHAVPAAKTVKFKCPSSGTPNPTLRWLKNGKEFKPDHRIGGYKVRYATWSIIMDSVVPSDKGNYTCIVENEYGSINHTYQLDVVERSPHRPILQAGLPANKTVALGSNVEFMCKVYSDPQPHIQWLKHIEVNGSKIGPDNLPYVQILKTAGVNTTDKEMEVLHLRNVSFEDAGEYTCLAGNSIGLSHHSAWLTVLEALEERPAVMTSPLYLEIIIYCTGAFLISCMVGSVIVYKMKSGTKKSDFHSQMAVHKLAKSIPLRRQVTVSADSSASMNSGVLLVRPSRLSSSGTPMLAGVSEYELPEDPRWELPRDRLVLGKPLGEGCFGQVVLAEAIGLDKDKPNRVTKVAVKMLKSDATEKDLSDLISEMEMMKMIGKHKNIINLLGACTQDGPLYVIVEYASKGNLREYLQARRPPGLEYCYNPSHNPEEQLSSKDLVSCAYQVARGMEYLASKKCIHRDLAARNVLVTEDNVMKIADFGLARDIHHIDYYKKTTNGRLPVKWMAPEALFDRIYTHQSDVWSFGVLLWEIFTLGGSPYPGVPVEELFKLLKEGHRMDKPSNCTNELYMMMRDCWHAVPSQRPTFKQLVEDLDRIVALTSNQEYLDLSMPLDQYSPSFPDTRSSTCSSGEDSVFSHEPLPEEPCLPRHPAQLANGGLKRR
# Mus musculus [7] = experiment: Toxicity in human HCT116 cells xenografted mouse assessed as changes in body weight and gross observation at 25 to 50 mg/kg, po qd up to 32 days; format: organism-based, HCT-116; parameters: dose 25-50 mg/kg, route oral; settings: in vivo, 768 h
# [8] = Tmax in monkey at 10 mg/kg, po; format: ADME, organism-based, Macaca mulatta; parameters: dose 10 mg/kg, route oral; settings: rhesus monkey, in vivo
# [9] = Antiproliferative activity against human melanoma cells by MTT assay; format: functional, cell-based; settings: Melanoma cell
# MDA-MB-231 [10] = experiment: Antitumor activity against human MDA-MB-231 cells xenografted in mouse assessed as tumor regression at 50 mg/kg, po qd up to 32 days; format: functional, organism-based; parameters: dose 50 mg/kg
# [11] = Total clearance in rat at 5 mg/kg, iv; format: ADME, organism-based; parameters: dose 5 mg/kg, route intravenous; settings: in vivo
# HUVEC [12] = experiment: Antiangiogenic activity in HUVEC assessed as inhibition of bFGF-induced cell proliferation; format: functional, cell-based; settings: Homo sapiens
# [13] = Antiproliferative activity against human prostate cancer cells by MTT assay; format: functional, cell-based; settings: Cancer cell lines
# [14] = Terminal half life in mouse at 5 mg/kg, iv; format: ADME, organism-based; parameters: dose 5 mg/kg, route intravenous; settings: in vivo, read-out: beta t1/2 (converted)
# [15] = Cmax in rat at 50 mg/kg, po; format: ADME, organism-based; parameters: dose 50 mg/kg, route oral; settings: in vivo
# [16] = AUC (0 to 24 hrs) in monkey at 10 mg/kg, po; format: ADME, organism-based, Macaca mulatta; parameters: time < 24 hr, dose 10 mg/kg, route oral; settings: rhesus monkey, plasma
# MDA-MB-231 [17] = experiment: Antitumor activity against human MDA-MB-231 cells xenografted in mouse assessed as tumor growth inhibition at 50 mg/kg, po qd up to 32 days; format: functional, organism-based; parameters: dose 50 mg/kg
# [18] = Antiproliferative activity against human oral epidermoid cancer cells by MTT assay; format: functional, cell-based; settings: Cancer cell lines
# [19] = Antiproliferative activity against human colon cancer cells by MTT assay; format: functional, cell-based; settings: Cancer cell lines
# [20] = Oral bioavailability in mouse at 25 mg/kg; format: ADME, organism-based; settings: in vivo
# HCT-116 [21] = experiment: Antitumor activity against human HCT116 cells xenografted in mouse assessed as tumor growth inhibition at 1.56 mg/kg, po qd up to 32 days; format: functional, organism-based; parameters: dose 1.56 mg/kg
# Mus musculus [22] = experiment: Toxicity in human MDA-MB-231 cells xenografted mouse assessed as changes in body weight and gross observation at 25 to 50 mg/kg, po qd up to 32 days; format: organism-based; parameters: dose 25-50 mg/kg, route oral; settings: in vivo, 768 h
# [23] = Terminal half life in rat at 5 mg/kg, iv; format: ADME, organism-based; parameters: dose 5 mg/kg, route intravenous; settings: in vivo, read-out: beta t1/2 (converted)
# [24] = Antiproliferative activity against human breast cancer cells by MTT assay; format: functional, cell-based; settings: Cancer cell lines
# [25] = AUC (0 to 24 hrs) in rat at 50 mg/kg, po; format: ADME, organism-based; parameters: time < 24 hr, dose 50 mg/kg, route oral; settings: plasma
# Aurora kinase A = biological target: T1, Aurora kinase A (Homo sapiens, UniProt O14965); experiment: Inhibition of aurora-A (unknown origin)
# T1 sequence (O14965 whole entry): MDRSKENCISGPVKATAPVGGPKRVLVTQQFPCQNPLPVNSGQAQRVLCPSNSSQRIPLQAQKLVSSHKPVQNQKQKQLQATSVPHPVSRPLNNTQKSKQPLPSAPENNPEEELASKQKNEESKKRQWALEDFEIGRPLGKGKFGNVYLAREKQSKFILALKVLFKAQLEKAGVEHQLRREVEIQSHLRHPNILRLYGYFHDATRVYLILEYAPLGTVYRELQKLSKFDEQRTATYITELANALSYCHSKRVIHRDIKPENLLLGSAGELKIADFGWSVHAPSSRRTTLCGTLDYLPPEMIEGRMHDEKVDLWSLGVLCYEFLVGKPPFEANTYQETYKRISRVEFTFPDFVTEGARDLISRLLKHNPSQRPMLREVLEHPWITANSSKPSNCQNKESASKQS
# [26] = AUC (0 to 24 hrs) in mouse at 25 mg/kg, po; format: ADME, organism-based; parameters: time < 24 hr, dose 25 mg/kg, route oral; settings: plasma
# [27] = Antiproliferative activity against human lung cancer cells by MTT assay; format: functional, cell-based; settings: Cancer cell lines
# [28] = Cmax in mouse at 25 mg/kg, po; format: ADME, organism-based; parameters: dose 25 mg/kg, route oral; settings: in vivo
# Mus musculus [29] = experiment: Toxicity in human LoVo cells xenografted mouse assessed as changes in body weight and gross observation at 25 to 50 mg/kg, po qd up to 32 days; format: organism-based; parameters: dose 25-50 mg/kg, route oral; settings: in vivo, 768 h
# [30] = Oral bioavailability in rat at 50 mg/kg; format: ADME, organism-based; settings: in vivo
# MDA-MB-231 [31] = experiment: Antitumor activity against human MDA-MB-231 cells xenografted in mouse assessed as tumor regression at 25 mg/kg, po qd up to 32 days; format: functional, organism-based; parameters: dose 25 mg/kg
# A549 [32] = experiment: Antitumor activity against human A549 cells xenografted in mouse assessed as increase in mouse survival at 25 to 50 mg/kg, po qd up to 32 days; format: functional; settings: dose mg/kg 25-50
# HUVEC [33] = experiment: Antiangiogenic activity in HUVEC assessed as inhibition of PDGF-induced cell proliferation; format: functional, cell-based; settings: Homo sapiens
# [34] = Volume of distribution at steady state in mouse at 5 mg/kg, iv; format: ADME, organism-based; parameters: dose 5 mg/kg, route intravenous; settings: in vivo, read-out: Vdss
# MDA-MB-231 [35] = experiment: Antitumor activity against human MDA-MB-231 cells xenografted in mouse assessed as increase in mouse survival at 25 to 50 mg/kg, po qd up to 32 days; format: functional; settings: dose mg/kg 25-50
# [36] = Tmax in rat at 50 mg/kg, po; format: ADME, organism-based; parameters: dose 50 mg/kg, route oral; settings: in vivo
# 22Rv1 (Homo sapiens) = experiment: Antitumor activity against human 22Rv1 cells xenografted in mouse assessed as tumor growth inhibition at 25 to 50 mg/kg, po qd up to 32 days; settings: dose mg/kg 25-50
# [37] = Oral bioavailability in monkey at 10 mg/kg; format: ADME, organism-based, Macaca mulatta; settings: rhesus monkey, in vivo
# HCT-116 [38] = experiment: Antitumor activity against human HCT116 cells xenografted in mouse assessed as increase in mouse survival at 25 to 50 mg/kg, po qd up to 32 days; format: functional; settings: dose mg/kg 25-50
# HUVEC [39] = experiment: Antiangiogenic activity in HUVEC assessed as inhibition of VEGF-induced cell proliferation; format: functional, cell-based; settings: Homo sapiens
# [40] = Total clearance in monkey at 1 mg/kg, iv; format: ADME, organism-based, Macaca mulatta; parameters: dose 1 mg/kg, route intravenous; settings: rhesus monkey, in vivo
# [41] = Terminal half life in monkey at 1 mg/kg, iv; format: ADME, organism-based, Macaca mulatta; parameters: dose 1 mg/kg, route intravenous; settings: rhesus monkey, in vivo, read-out: beta t1/2 (converted)
# [42] = Cmax in monkey at 10 mg/kg, po; format: ADME, organism-based, Macaca mulatta; parameters: dose 10 mg/kg, route oral; settings: rhesus monkey, in vivo
# [43] = Total clearance in mouse at 5 mg/kg, iv; format: ADME, organism-based; parameters: dose 5 mg/kg, route intravenous; settings: in vivo
# [44] = biological target: Vascular endothelial growth factor receptor 2 (Homo sapiens, UniProt P35968); experiment: Inhibition of KDR (unknown origin); format: single protein
# Sequence of Vascular endothelial growth factor receptor 2 (P35968 whole entry): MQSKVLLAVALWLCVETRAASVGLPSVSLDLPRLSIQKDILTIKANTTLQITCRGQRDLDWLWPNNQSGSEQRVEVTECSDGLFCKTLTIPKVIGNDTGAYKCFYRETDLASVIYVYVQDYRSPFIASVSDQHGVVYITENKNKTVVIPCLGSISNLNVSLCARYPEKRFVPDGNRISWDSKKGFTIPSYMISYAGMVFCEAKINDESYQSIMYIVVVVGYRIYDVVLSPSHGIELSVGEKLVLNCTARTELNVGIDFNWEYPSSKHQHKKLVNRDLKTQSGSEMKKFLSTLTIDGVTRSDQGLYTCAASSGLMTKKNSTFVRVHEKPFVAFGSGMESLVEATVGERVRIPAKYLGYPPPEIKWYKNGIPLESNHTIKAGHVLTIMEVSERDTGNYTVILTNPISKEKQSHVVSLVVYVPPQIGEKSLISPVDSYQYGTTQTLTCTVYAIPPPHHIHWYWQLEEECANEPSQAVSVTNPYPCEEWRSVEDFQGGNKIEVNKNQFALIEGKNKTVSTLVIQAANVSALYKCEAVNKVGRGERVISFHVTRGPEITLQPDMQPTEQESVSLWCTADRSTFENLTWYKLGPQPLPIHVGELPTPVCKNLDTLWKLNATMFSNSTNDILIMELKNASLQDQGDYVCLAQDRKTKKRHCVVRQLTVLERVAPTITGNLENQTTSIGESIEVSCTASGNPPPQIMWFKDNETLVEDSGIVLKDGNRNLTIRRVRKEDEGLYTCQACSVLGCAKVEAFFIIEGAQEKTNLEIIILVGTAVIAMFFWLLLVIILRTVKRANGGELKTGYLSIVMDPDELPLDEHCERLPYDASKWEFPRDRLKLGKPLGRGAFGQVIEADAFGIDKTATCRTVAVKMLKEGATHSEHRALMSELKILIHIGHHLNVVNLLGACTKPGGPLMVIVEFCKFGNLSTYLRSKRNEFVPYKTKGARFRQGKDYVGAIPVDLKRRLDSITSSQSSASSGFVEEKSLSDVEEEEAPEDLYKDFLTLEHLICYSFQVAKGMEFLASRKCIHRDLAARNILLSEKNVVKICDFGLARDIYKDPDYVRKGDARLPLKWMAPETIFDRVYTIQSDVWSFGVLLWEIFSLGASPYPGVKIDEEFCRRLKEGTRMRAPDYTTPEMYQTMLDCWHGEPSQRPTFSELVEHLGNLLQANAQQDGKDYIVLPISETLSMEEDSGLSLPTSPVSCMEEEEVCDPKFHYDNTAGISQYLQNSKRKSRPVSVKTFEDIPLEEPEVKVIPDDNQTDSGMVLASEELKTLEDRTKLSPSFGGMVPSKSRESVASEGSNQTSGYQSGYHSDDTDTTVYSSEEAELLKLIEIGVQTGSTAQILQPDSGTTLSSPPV
# [45] = biological target: Cyclin-dependent kinase 4 (Homo sapiens, UniProt P11802); experiment: Inhibition of CDK4 (unknown origin); format: single protein
# Sequence of Cyclin-dependent kinase 4 (P11802 whole entry): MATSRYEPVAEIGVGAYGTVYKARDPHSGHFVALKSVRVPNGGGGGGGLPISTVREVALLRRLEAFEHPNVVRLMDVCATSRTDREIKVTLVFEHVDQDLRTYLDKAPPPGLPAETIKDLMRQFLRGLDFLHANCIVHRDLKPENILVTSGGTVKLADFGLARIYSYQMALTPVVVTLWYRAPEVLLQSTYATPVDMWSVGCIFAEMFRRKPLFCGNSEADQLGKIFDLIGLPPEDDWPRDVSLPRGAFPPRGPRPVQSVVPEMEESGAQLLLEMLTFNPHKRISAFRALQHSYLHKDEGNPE
# [46] = biological target: Cyclin-dependent kinase 2 (Homo sapiens, UniProt P24941); experiment: Inhibition of CDK2 (unknown origin); format: single protein
structure (smiles),measurement,setting,value
COc1cc2c(cc1F)C(c1ccccc1Cl)=Nc1c(n[nH]c1C)N2 [RG-1530],Vd,[1],3.22 L/kg
same,TGI,A549 [2],inactive
same,Activity,Mus musculus [3],Non-toxic
same,Survival,LoVo,>=25%
same,Vd,[4],1.59 L/kg
same,Tmax,[5],2 h
same,IC50,[6],28 nM
same,Activity,Mus musculus [7],Non-toxic
same,Tmax,[8],4 h
same,IC50,[9],200 nM
same,Activity,MDA-MB-231 [10],Active
same,clearance,[11],8.78 mL/min/kg
same,IC50,HUVEC [12],118 nM
same,IC50,[13],200 nM
same,half-life,[14],4.32 h
same,Cmax,[15],5360 ng/mL
same,AUC(0-t) at 24 h,[16],4820 ng·h/mL
same,TGI,MDA-MB-231 [17],Active
same,IC50,[18],200 nM
same,IC50,[19],200 nM
same,bioavailability,[20],96.9%
same,TGI,HCT-116 [21],inactive
same,Activity,Mus musculus [22],Non-toxic
same,half-life,[23],4.7 h
same,IC50,[24],200 nM
same,AUC(0-t) at 24 h,[25],86300 ng·h/mL
same,IC50,Aurora kinase A,58 nM
same,AUC(0-t) at 24 h,[26],46700 ng·h/mL
same,IC50,[27],200 nM
same,Cmax,[28],5070 ng/mL
same,Activity,Mus musculus [29],Non-toxic
same,bioavailability,[30],88.7%
same,Activity,MDA-MB-231 [31],Active
same,Survival,A549 [32],>=25%
same,IC50,HUVEC [33],688 nM
same,Vd,[34],3.12 L/kg
same,Survival,MDA-MB-231 [35],>=25%
same,Tmax,[36],4 h
same,TGI,22Rv1 (Homo sapiens),98%
same,bioavailability,[37],22.1%
same,Survival,HCT-116 [38],>=25%
same,IC50,HUVEC [39],49 nM
same,clearance,[40],7.82 mL/min/kg
same,half-life,[41],3.83 h
same,Cmax,[42],406 ng/mL
same,clearance,[43],8.8 mL/min/kg
Cc1[nH]nc2c1N=C(c1ccccc1Cl)c1cc(N)ccc1N2,IC50,[6],50 nM
same,IC50,[44],34 nM
same,IC50,[45],303 nM
same,IC50,[46],88 nM
